Measurements: patent publication US20220323761A1, “METHOD FOR INDUCING HIBERNATION-LIKE STATE AND DEVICE SAME” (University of Tsukuba, priority 2019, published 2022)

Experiments:
[1] = system: Q-neurons in the AVPe, MPA and Pe; experiment: Fos immunostaining of brain sections of Q-hM3D mice after CNO IP; type: in vivo; settings: 90 minutes after CNO IP
Description: Each mouse was deeply anesthetized with isoflurane, transcardially perfused with 10% sucrose in water, and then perfused with ice-cooled 4% paraformaldehyde (4% PFA) in a 0.1 M phosphate buffer having a pH of 7.4, and the brain was removed. After being left in the 4% PFA overnight at 4° C., the brain was fixed, incubated overnight at 4° C. in a 0.1 M phosphate buffered saline (PBS) having a pH of 7.4, in 30% sucrose, immersed in a Tissuue-Tek O.C.T. compound (Sakura) in a cryomold, and frozen at −80° C. until sectioned. With the use of a cryostat (CM1860, Leica), the brain was sliced into coronal sections in four equal series every 50 μm, collected in a 6-well plate filled with ice-cooled PBS, and washed three times with PBS at room temperature (RT). Unless otherwise specified, the following incubation process was carried out while gently shaking on an orbital shaker. […]
The primary antibodies used in this research were rabbit anti-cFos (1:4000, ABE457, Millipore), goat anti-mCherry (1:15000, AB0040-200, SICGEN), rat anti-GFP (1:5000, 04404-84, NACALAI TESQUE), mouse anti-TH (1:1000, sc-25269, Santa Cruz Biotechnology), mouse anti-orexin A (1:200, sc-80263, Santa Cruz Biotechnology), and rabbit anti-MCH (1:2000, M8440, SIGMA). […] Brain regions were determined using a mouse brain map from Paxinos and Franklin^36.

hM3Dq in Q-neurons = target: T1, hM3Dq in Q-neurons (Homo sapiens, UniProt P20309, A239G/Y149C); experiment: Body temperature, respiratory gas, ECG, EEG, respiration and serum analysis of Q-hM3D mice after IP CNO (QIH); type: in vivo
T1 construct: mCherry (C); expressed in transfected cells; host or cells: QRFP-producing (Q) neurons of Qrfp-iCre mice transduced in vivo with AAV10-EF1α-DIO-hM3Dq-mCherry
T1 sequence (P20309 whole entry Y149C/A239G, the tested form may be a part): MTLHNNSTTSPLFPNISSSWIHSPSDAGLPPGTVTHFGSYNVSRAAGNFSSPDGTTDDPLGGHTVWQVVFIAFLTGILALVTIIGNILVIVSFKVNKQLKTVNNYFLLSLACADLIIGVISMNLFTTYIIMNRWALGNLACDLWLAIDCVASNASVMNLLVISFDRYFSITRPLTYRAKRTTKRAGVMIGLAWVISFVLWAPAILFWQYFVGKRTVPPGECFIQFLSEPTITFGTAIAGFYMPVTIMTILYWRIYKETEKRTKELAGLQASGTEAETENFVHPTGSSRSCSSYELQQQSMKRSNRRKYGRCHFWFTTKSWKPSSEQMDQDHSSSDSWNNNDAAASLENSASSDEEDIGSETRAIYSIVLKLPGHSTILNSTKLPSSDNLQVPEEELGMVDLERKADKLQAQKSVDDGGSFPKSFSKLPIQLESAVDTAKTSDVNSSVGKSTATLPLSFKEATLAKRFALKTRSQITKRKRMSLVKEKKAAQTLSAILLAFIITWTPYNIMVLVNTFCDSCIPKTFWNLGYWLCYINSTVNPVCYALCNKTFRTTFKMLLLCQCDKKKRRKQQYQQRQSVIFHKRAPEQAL
Description: In order to record the core body temperature, oxygen consumption amount, EEG, ECG, and respiratory patterns, each animal was housed in a temperature controlled chamber (HC-100, Shin Factory or LP-400P-AR, Nippon Medical & Chemical Instruments Co., Ltd.). In order to continuously record the TB (intraperitoneal temperature), a telemetry temperature sensor (TA11TA-F10, DSI) was implanted into the animal's abdominal cavity under general inhalation anesthesia at least 7 days prior to the recording. The VO 2 and carbon dioxide discharge rate (VCO2) of the animal were continuously recorded using a respiratory gas analyzer (ARCO-2000 mass spectrometer, ARCO System). The respiratory quotient was calculated from the ratio of VCO2/VO2.
The EEG and ECG were recorded using a implanted remote measurement transmitter (F20-EET or HD-X02, DSI). For EEG recording, two stainless steel screws (1 mm in diameter) were soldered to a wire of a telemetry transmitter and inserted under general anesthesia through the skull of the cortex (AP, 1.00 mm; right, 1.50 mm from bregma or lambda). Two other wires from the transmitter were placed on the surface of the thoractic cavity, and an ECG was recorded. The mice were allowed to recover from surgery for at least 10 days. An EEG/ECG data collecting system consisted of transmitters, an analog-digital converter and a recording computer with the software Ponemah Physiology Platform (version 6.30, DSI). The sampling rate was 500 Hz for both the EEG and the ECG, and the data was converted into ASCII format for review. The heart rate was evaluated through a visual inspection of the waveform.
The respiratory flow was recorded using a non-invasive respiratory flow recording system^35. Specifically, a mouse was placed in metabolic chamber (TMC-1213-PMMA, Minamiderika Shokai) having an air flow of at least 0.3 L/min. The chamber was connected to a pressure sensor (PMD-8203-3G, Biotex), and the pressure difference between the outside and inside of the chamber was detected. If the animal is breathing, the pressure difference from the outside to the inside increases during inhalation and decreases during exhalation^35. An analog signal output from the sensor was converted to a digital signal by an AD converter (NI-9205, National Instruments) at 250 Hz, and stored in a computer using data logging software developed by Biotex Inc.
The Dreadd agonist CNO (clozapine N-oxide, Abcam, ab141704) was dissolved in physiological saline at a dose of 100 μg/mL, and the solution was frozen at −20° C. The CNO solution was thawed on site and then administered to each mouse intraperitoneally at a dose of 1 mg/kg. The adenosineAl receptor agonist CHA (N^6-cyclohexyl adenosine, Sigma-Aldrich, C9901) was dissolved in physiological saline at a concentration of 250 μg/mL, and the solution was administered intraperitoneally to each mouse at a dose of 2.5 mg/kg.
Blood was collected from the mice under anesthesia through a left ventricular puncture using a 25 gauge needle. The collected blood was stored on ice for less than 2 hours. The sample was centrifuged at 2000 G for 10 minutes at 4° C., and the supernatant was collected and frozen at −30° C. The frozen serum specimens were sent to FUJIFILM Wako Pure Chemical Corporation, and the concentrations of Na (mEq/L), K (mEq/L), Cl (mEq/L), AST (IU/L), ALT (IU/L) LDH (IU/L), CK (IU/L), GLU (mg/dL), and total ketone bodies (μmol/L) were measured.

SMILES: C[N+]1([O-])CCN(C2=Nc3cc(Cl)ccc3Nc3ccccc32)CC1 [CNO, clozapine N-oxide]
- in vivo excitation of neurons (mCherry and Fos double positive) [1]: confirmed
- duration of extremely low TB state (below 30° C.) (hM3Dq in Q-neurons; IP injection, Q-hM3D mice): ≥ 48 h
- hypothermia compared with Qrfp-iCre; Rosa26^dreaddm3 mice (hM3Dq in Q-neurons; IP injection, Q-hM3D mice): deeper, longer sustained hypothermia
- QIH after repeated injections in the same mice (hM3Dq in Q-neurons; Q-hM3D mice): reproducible
- condition of mice after recovery from QIH (hM3Dq in Q-neurons; Q-hM3D mice): healthy
- electroencephalogram (EEG) in QIH (hM3Dq in Q-neurons; Q-hM3D mice): very low amplitude
- induction of QIH (hM3Dq in Q-neurons; Q-hM3D mice): effectively induces QIH
- tail temperature (hM3Dq in Q-neurons; Q-hM3D mice, 0.5 hours after IP CNO): increases
- O2 consumption rate (VO2) change (hM3Dq in Q-neurons; Q-hM3D mice, CNO-induced hypothermic state): significant reduction
- TB change after administration (hM3Dq in Q-neurons; Q-hM3D mice, concurrently with Ts): decreases
- duration of QIH with TB of less than 30° C. (hM3Dq in Q-neurons; TA=20° C., one dose 1 mg/kg): ≥ 48 h
- time for VO2 to fully return to normal (hM3Dq in Q-neurons; TA=20° C., one dose 1 mg/kg): about 1 week
- posture during QIH (hM3Dq in Q-neurons; TA=28° C., Q-hM3D mice, n=4): extended posture
- blood glucose levels in QIH (hM3Dq in Q-neurons; blood serum chemical data): reduced
- effect of CNO on TB with TeTxLC co-expressed in Q-neurons (hM3Dq in Q-neurons; simultaneous infusion of AAV2/9-hSyn-DIO-TeTxLC-eYFP and AAV10-EF1α-DIO-hM3Dq-mCherry): completely eliminated
- heart rate (hM3Dq in Q-neurons; two hours after CNO injection, average of n=3, 758 two hours prior): 215 beats/min
- VO2 (hM3Dq in Q-neurons; two hours after CNO injection, 3.60 prior): 1.17 mL/g/h
- respiratory rate (hM3Dq in Q-neurons; two hours after CNO injection, 333 prior): undetectable
